# Experimental data published in patent publication US20240358841A1, “NANOMATERIALS COMPRISING TETRAVALENT LIPID COMPOUNDS” (Beam Therapeutics Inc., priority 2021, published 2024).
# What was measured:
# [1] = LNP hydrodynamic diameter and polydispersity index by dynamic light scattering (DLS); assay type: physicochemical; conditions: LNP: 47.5% ionizable lipid, 40% cholesterol, 2.5% PEG-2000 DMG, 10% DPSC, N/P 4-8
# Method: (§1) LNPs were prepared with 47.5% Ionizable Lipid (e.g., a compound provided herein): 40% cholesterol: 2.5% PEG-2000 DMG; and 10% DPSC and an N/P ratio range of 4-8. LNPs were formed by microfluidic mixing of the lipid and NA solutions using a Precision Nanosystems NanoAssemblr Spark or Benchtop series Instruments, according to the manufacturers protocol. A ratio of aqueous to organic solvent of approximately 2:1 or 3:1 was maintained during mixing using differential flow rates. After mixing, LNPs were collected, diluted in phosphate buffer saline (PBS) or Tris-buffered saline (TBS) (approximately 1:1 v/v). Further buffer exchange was conducted using dialysis in PBS or TBS at 4° C. for 4 to 24 hours against a 20 kDa filter. After this initial dialysis, each individual LNP preparation was characterized via dynamic light scattering (DLS) to measure the size (e.g., diameter) and polydispersity. LNPs falling within specific diameter and polydispersity ranges were pooled, and further dialyzed against PBS or TBS at 4° C. for 1 to 4 hours against a 100 kDa dialysis cassette. After the second dialysis, LNPs were sterile filtered using 0.22 μm filter and stored at 4° C. for further use.
# LNP hydrodynamic diameter and polydispersity index (PDI) were measured using high throughput dynamic light scattering (DLS) (Stunner, Unchained Labs). LNPs were diluted 1×TBS or PBS to an appropriate concentration and analyzed.
# [2] = LNP encapsulation efficiency by Ribogreen assay; assay type: physicochemical; conditions: LNP: 47.5% ionizable lipid, 40% cholesterol, 2.5% PEG-2000 DMG, 10% DPSC, N/P 4-8
# Method: as §1
# RNA concentration and encapsulation efficiency were determined by Ribogreen assay (BioTek Synergy LX plate reader).
Structure (SMILES),Mean Diameter (nm) [1] [nm],Mean PDI [1],Mean Encapsulation Efficiency (%) [2] [%]
"CC/C=C\CCCCOC(CCC(=O)OCC(COC(=O)CCCCCCOC(=O)C(CCCC)CCCCCC)(COC(=O)CCCCCCOC(=O)C(CCCC)CCCCCC)COC(=O)NCCN1CCCC1)OCCCC/C=C\CC (stereo not drawn) [Compound 7-65, ((2-(((4,4-bis(((Z)-oct-5-en-1-yl)oxy)butanoyl)oxy)methyl)-2-((((2-(pyrrolidin-1-yl)ethyl)carbamoyl)oxy)methyl)propane-1,3-diyl)bis(oxy))bis(7-oxoheptane-7,1-diyl) bis(2-butyloctanoate)]",82.3,0.15,89.2
"CCCCC/C=C\CCOC(=O)CCCCCCC(=O)OCC(COC(=O)CCCCCCC(=O)OCC/C=C\CCCCC)(COC(=O)CCCCCCC(=O)OCC/C=C\CCCCC)COC(=O)NCCN1CCCC1 [Compound 7-16, 8,8′-di((Z)-non-3-en-1-yl) O′1,O1-(2-(((8-(((Z)-non-3-en-1-yl)oxy)-8-oxooctanoyl)oxy)methyl)-2-((((2-(pyrrolidin-1-yl)ethyl)carbamoyl)oxy)methyl)propane-1,3-diyl) di(octanedioate)]",108.5,0.07,79.9
"CC/C=C\CCCCOC(CCC(=O)OCC(COC(=O)CCCCCCC/C=C\C/C=C\CCCCC)(COC(=O)CCCCCCC/C=C\C/C=C\CCCCC)COC(=O)NCCN1CCCC1)OCCCC/C=C\CC [Compound 7-70, 2-(((4,4-bis(((Z)-oct-5-en-1-yl)oxy)butanoyl)oxy)methyl)-2-((((2-(pyrrolidin-1-yl)ethyl)carbamoyl)oxy)methyl)propane-1,3-diyl (9Z,9′Z,12Z,12′Z)-bis(octadeca-9,12-dienoate)]",88.8,0.13,87.0
"CC/C=C\CCCCOC(CCC(=O)OCC(COC(=O)CCCCCOC(=O)C(CCCC)CCCCCC)(COC(=O)CCCCCOC(=O)C(CCCC)CCCCCC)COC(=O)OCC1CCCN(CC)C1)OCCCC/C=C\CC (stereo not drawn) [Compound 7-58, ((2-(((4,4-bis(((Z)-oct-5-en-1-yl)oxy)butanoyl)oxy)methyl)-2-(((((1-ethylpiperidin-3-yl)methoxy)carbonyl)oxy)methyl)propane-1,3-diyl)bis(oxy))bis(6-oxohexane-6,1-diyl) bis(2-butyloctanoate)]",77.7,0.15,90.1
"CC/C=C\CCCCOC(CCC(=O)OCC(COC(=O)CCCCCCC/C=C\C/C=C\CCCCC)(COC(=O)CCCCCCC/C=C\C/C=C\CCCCC)COC(=O)OCCCN(C)CC)OCCCC/C=C\CC [Compound 7-69, 2-(((4,4-bis(((Z)-oct-5-en-1-yl)oxy)butanoyl)oxy)methyl)-2-((((3-(ethyl(methyl)amino)propoxy)carbonyl)oxy)methyl)propane-1,3-diyl (9Z,9′Z,12Z,12′Z)-bis(octadeca-9,12-dienoate)]",86.1,0.15,88.5
"CC/C=C\CCCCOC(CCC(=O)OCC(COC(=O)CCCCCCC/C=C\C/C=C\CCCCC)(COC(=O)CCCCCCC/C=C\C/C=C\CCCCC)COC(=O)OCC1CCCN(CC)C1)OCCCC/C=C\CC (stereo not drawn) [Compound 7-68, 2-(((4,4-bis(((Z)-oct-5-en-1-yl)oxy)butanoyl)oxy)methyl)-2-(((((1-ethylpiperidin-3-yl)methoxy)carbonyl)oxy)methyl)propane-1,3-diyl (9Z,9′Z,12Z,12′Z)-bis(octadeca-9,12-dienoate)]",92.9,0.14,90.0
CC/C=C\CCCCOC(CCC(=O)OCC(COC(=O)CCCCCCOC(=O)C(CCCC)CCCCCC)(COC(=O)CCCCCCOC(=O)C(CCCC)CCCCCC)COC(=O)OCCCN(C)CC)OCCCC/C=C\CC (stereo not drawn) [Compound 7-62],80.2,0.14,88.6
CC/C=C\CCCCOC(CCC(=O)OCC(COC(=O)CCCCCOC(=O)C(CCCC)CCCCCC)(COC(=O)CCCCCOC(=O)C(CCCC)CCCCCC)COC(=O)OCCCN(C)CC)OCCCC/C=C\CC (stereo not drawn) [Compound 7-61],76.1,0.17,88.9
"CC/C=C\CCCCOC(CCC(=O)OCC(COC(=O)CCCCCCCOC(=O)C(CCCC)CCCCCC)(COC(=O)CCCCCCCOC(=O)C(CCCC)CCCCCC)COC(=O)NCCN1CCCC1)OCCCC/C=C\CC (stereo not drawn) [Compound 7-66, 2-(((4,4-bis(((Z)-oct-5-en-1-yl)oxy)butanoyl)oxy)methyl)-2-((((2-(pyrrolidin-1-yl)ethyl)carbamoyl)oxy)methyl)propane-1,3-diyl bis(8-((2-butyloctanoyl)oxy)octanoate)]",87.2,0.12,88.8
"CCCCC/C=C\CCOC(=O)CCCC(=O)OCC(COC(=O)CCCC(=O)OCC/C=C\CCCCC)(COC(=O)CCCC(=O)OCC/C=C\CCCCC)COC(=O)OCCCN(CC)CC [Compound 7-37, O,O′-(2-((((3-(diethylamino)propoxy)carbonyl)oxy)methyl)-2-(((5-(((Z)-non-3-en-1-yl)oxy)-5-oxopentanoyl)oxy)methyl)propane-1,3-diyl) di((Z)-non-3-en-1-yl) diglutarate]",119.7,0.11,71.9
"CC/C=C\CCCCOC(CCC(=O)OCC(COC(=O)CCCCCCC/C=C\C/C=C\CCCCC)(COC(=O)CCCCCCC/C=C\C/C=C\CCCCC)COC(=O)OCCCN(CC)CC)OCCCC/C=C\CC [Compound 7-67, 2-(((4,4-bis(((Z)-oct-5-en-1-yl)oxy)butanoyl)oxy)methyl)-2-((((3-(diethylamino)propoxy)carbonyl)oxy)methyl)propane-1,3-diyl (9Z,9′Z,12Z,12′Z)-bis(octadeca-9,12-dienoate)]",87.5,0.18,89.5
CC/C=C\CCCCOC(=O)CCCCCCC(=O)OCC(COC(=O)CCCCCCC(=O)OCCCC/C=C\CC)(COC(=O)CCCCCCC(=O)OCCCC/C=C\CC)COC(=O)NCCN1CCCC1 [Compound 7-18],153.0,0.08,38.4
CC/C=C\CCCCOC(CCC(=O)OCC(COC(=O)CCCCCCCOC(=O)C(CCCC)CCCCCC)(COC(=O)CCCCCCCOC(=O)C(CCCC)CCCCCC)COC(=O)OCCCN(CC)CC)OCCCC/C=C\CC (stereo not drawn) [Compound 7-57],81.0,0.17,88.4
"CC/C=C\CCCCOC(CCC(=O)OCC(COC(=O)CCCCCOC(=O)C(CCCC)CCCCCC)(COC(=O)CCCCCOC(=O)C(CCCC)CCCCCC)COC(=O)NCCN1CCCC1)OCCCC/C=C\CC (stereo not drawn) [Compound 7-64, ((2-(((4,4-bis(((Z)-oct-5-en-1-yl)oxy)butanoyl)oxy)methyl)-2-((((2-(pyrrolidin-1-yl)ethyl)carbamoyl)oxy)methyl)propane-1,3-diyl)bis(oxy))bis(6-oxohexane-6,1-diyl) bis(2-butyloctanoate)]",82.1,0.13,90.4
CC/C=C\CCCCOC(CCC(=O)OCC(COC(=O)CCCCCCCOC(=O)C(CCCC)CCCCCC)(COC(=O)CCCCCCCOC(=O)C(CCCC)CCCCCC)COC(=O)OCCCN(C)CC)OCCCC/C=C\CC (stereo not drawn) [Compound 7-63],79.6,0.14,87.8
"CCCCC/C=C\CCOC(=O)CCCCCC(=O)OCC(COC(=O)CCCCCC(=O)OCC/C=C\CCCCC)(COC(=O)CC12CC3CC(CC(C3)C1)C2)COC(=O)OCCCN(CC)CC [Compound 7-25, O′1,O1-(2-((2-((3r,5r,7r)-adamantan-1-yl)acetoxy)methyl)-2-((((3-(diethylamino)propoxy)carbonyl)oxy)methyl)propane-1,3-diyl) 7,7′-di((Z)-non-3-en-1-yl) di(heptanedioate)]",123.1,0.11,66.9
"CCCCC/C=C\CCOC(=O)CCCCCC(=O)OCC(COC(=O)CCCCCC(=O)OCC/C=C\CCCCC)(COC(=O)CCCCCC(=O)OCC/C=C\CCCCC)COC(=O)CCCN1CCCC1 [Compound 7-51, 7,7′-di((Z)-non-3-en-1-yl) O′1,O1-(2-(((7-(((Z)-non-3-en-1-yl)oxy)-7-oxoheptanoyl)oxy)methyl)-2-(((4-(pyrrolidin-1-yl)butanoyl)oxy)methyl)propane-1,3-diyl) di(heptanedioate)]",126.0,0.08,77.1
